By IC50 is commonly meant the concentration needed to halve the response being measured. The EC50 is the concentration giving half of the maximal effect. A low value points to a more potent agent. As usually defined, the Ki is the dissociation constant of the complex between target and ligand, obtained from inhibition or displacement. Lower therefore signals higher affinity. One may read the Kd as a measure of binding affinity in units of concentration.

One data set relates to A549 cells. As to the kind of experiment: [3H]-2DG uptake assay in A549 cells. It is filed as cell-based, human. The following applies: 10 min incubation with compound, mean ± s.d., n = 3. As for the experimental part: To determine which of the 17 rapafucin hits inhibited the transporter activity of GLUT1, an orthogonal glucose uptake assay using 2-deoxy-D-[3H] glucose ([3H]-2DG), a nonhydrolyzable, radioactive glucose analog, was employed. Each hit was separately incubated with A549 cells for 10 min before the amount of [3H]-2DG taken up by the cells was measured using scintillation counting. […] The effect of JW11-D2 on uptake of [3H]-2DG in human red blood cells that exclusively express GLUT1 was then determined. Helgerson and Carruthers, J. Biol. Chem. 1987, 262, 5464-5475. […] To further improve the potency of JW11-D2, a structure-activity relationship (SAR) study was performed by synthesizing 21 new analogs of JW11-D2 using different amino acid building blocks.
(§1) The inhibitory activity of compounds on glucose transport was analyzed by measuring the cell uptake of [3H]-2DG as previously described. Ulanovskaya et al., Chem. Biol. 2011, 18, 222-230. Briefly, cells were washed twice and incubated in low-glucose medium for 10 min. Cells were added drugs and incubated for another 10 min before adding [3H]-2DG. After 10 min incubation with [3H]-2DG, cells were washed twice and lysed with 0.2 N NaOH plus 0.2% SDS. The cell lysate was transferred to a new tube containing 1 mL of optiphase supermix. Glucose uptake was quantified with a scintillation counter.

The next data set deals with HCC1954. As to the kind of experiment: [3H]-2DG uptake assay in HCC1954 cells. The format is cell-based, human. As for the experimental part:
Hay, Nat. Rev. […] To determine whether RgA could inhibit glucose uptake in cancer cell lines in addition to A549, the impact of RgA on [3H]-2DG uptake in six other cancer cell lines, including HCC1954, MCF-7, PANC10.05, Jurkat T, HeLa, and RKO was measured (FIG. 3A, Table 3).
as §1

Another data set relates to DLD1 WT. As to the kind of experiment: [3H]-2DG uptake in DLD1 WT cells. The format is cell-based. The following applies: DLD1 wild type. As for the experimental part:
as §1

The target in the next data set is FKSP13 (Homo sapiens, UniProt P26885). The data set is described as follows: peptidyl prolyl cis-trans isomerase activity inhibition, FKSP13. It is filed as biochemical. The following applies: inhibition of prolyl isomerase activity.
Sequence of FKSP13 (P26885 22-142): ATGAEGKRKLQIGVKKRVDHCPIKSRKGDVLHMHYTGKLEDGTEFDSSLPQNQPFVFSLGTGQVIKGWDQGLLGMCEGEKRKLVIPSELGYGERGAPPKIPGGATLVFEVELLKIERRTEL
The next data set deals with T1, GLUT1 (Homo sapiens, UniProt P11166).
T1 construct: The full-length human SLC2A1, SLC2A3, and SLC2A4 genes were PCR amplified and inserted into pLenti6M vector 2; expressed in transfected cells
T1 sequence (P11166 1-492): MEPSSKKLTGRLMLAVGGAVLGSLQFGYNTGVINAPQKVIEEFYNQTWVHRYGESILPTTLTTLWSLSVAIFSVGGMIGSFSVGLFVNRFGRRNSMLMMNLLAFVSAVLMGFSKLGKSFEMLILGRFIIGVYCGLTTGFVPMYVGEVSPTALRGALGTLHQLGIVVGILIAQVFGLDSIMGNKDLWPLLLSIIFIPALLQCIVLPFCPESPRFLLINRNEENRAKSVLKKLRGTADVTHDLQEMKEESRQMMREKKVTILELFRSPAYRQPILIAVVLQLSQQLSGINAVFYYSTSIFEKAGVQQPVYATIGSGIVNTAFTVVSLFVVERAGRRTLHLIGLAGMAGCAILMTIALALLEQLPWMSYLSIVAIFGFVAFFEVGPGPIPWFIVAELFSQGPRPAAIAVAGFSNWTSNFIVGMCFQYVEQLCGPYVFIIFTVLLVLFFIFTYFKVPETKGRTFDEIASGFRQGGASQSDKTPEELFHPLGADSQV
As to the kind of experiment: biotin-RgA pull-down and biotin probe competition binding assay, GLUT1. The following applies: competition with 100 nM biotin-RgA probe, HEK293T GLUT1 lysate, Western blot densitometry; read-out: estimated Kd for GLUT1. As for the experimental part: Next, the binding affinity of RgA for GLUT1 was determined using a RgA biotin pull-down assay. A biotin-RgA conjugate was synthesized by tethering the biotin moiety through carbon:carbon double bond in the FKBP-binding domain of RgA (FIG. 13). […] Using the biotin-RgA conjugate, a pulldown experiment with cell lysate containing detergent-solubilized GLUT1 protein prepared from HEK293T cells overexpressing GLUT1 was performed, followed by Western blot analysis with a GLUT1-specific antibody.
The estimation of Kd value for RgA was determined with the biotin probe competition binding assay. […] After western blot, band intensities were quantified by densitometry analysis using Image J software. The assay was repeated three times. GraphPad Prism (v4.03) software was used to determine apparent Kd value for RgA using a nonlinear regression.

The next data set has as its system HCC1954 xenograft. As to the kind of experiment: HCC1954 breast cancer xenograft in nude mice. It is filed as in vivo. As for the experimental part: Given that RgA inhibited multiple isoforms of GLUTs, including GLUT1, 3, and 4, it raised the question of whether animals could tolerate RgA. As breast cancer cell lines are more sensitive to RgA than other cell lines (FIG. 6A and Table 3), the anti-breast cancer activity of RgA in vivo was assessed. Two breast cancer cell lines were selected for the xenograft experiment-MCF-7, an ER+, HER2− line, and HCC1954, an ER−, HER2+ breast line. NSG mice bearing MCF-7 tumors were given daily vehicle or RgA at a dose of 2 mg/kg for […].
All animal studies were conducted in compliance with all relevant ethical regulations set forth by the Johns Hopkins University Animal Care and Use Committee (ACUC). Female mice aged 4-6 weeks and weighing 18-22 g were maintained in a pathogen-free facility at Johns Hopkins Medical Institutions and cared for according to National Institutes of Health guidelines and under a protocol approved by the Johns Hopkins University Animal Care Committee. For the xenograft experiment of MCF-7, 17β-estradiol pellets (0.72 mg per pellet, 60-day release, Innovative Research of America, FL) were implanted at 5 days prior to tumor cell injection. […] The tumor volume was measured periodically using a Vernier caliper and calculated according to the modified ellipsoid formula: tumor volume (mm^3)=(short axis)^2×(long axis)×π/6. […]

Molecules are shown by their SMILES.

Consider `CCC(C)C1C(=O)NCC(=O)N(C)CCC=CC(=O)OCC(C)(C)C(=O)C(=O)N2CCCCC2C(=O)OC(CCc2ccc(OC)c(OC)c2)c2cccc(c2)NC(=O)CCC(=O)N(C)C(CC(C)C)C(=O)NC(Cc2ccccc2)C(=O)N1C` (stereo not shown) [JW11-D2, Rapaglutin A], for which the half-inhibitory concentration (IC50) with A549 cells is 0.0116 µM; in the data set with HCC1954, 0.0083 µM. Also, the EC50 with DLD1 WT was determined as 0.0175 ± 0.0025 µM. In addition, the inhibition constant (Ki) on FKSP13 worked out at 0.539 ± 0.207 µM. Besides, the Kd on GLUT1 was 0.078 µM. In addition, the “tumor volume index on day 38” value in the data set with HCC1954 xenograft (HCC1954 in nude mice, 2 mg/kg intraperitoneally daily, vehicle 26.14) came to 12.97. For the same compound, in the data set with HCC1954 xenograft (HCC1954 xenograft mice, 2 mg/kg daily), the “weight loss and signs of adverse effects” value is “no significant weight loss or any signs of adverse effects”.
